This is an account of results in article PMC7933930, “Development of a small molecule that corrects misfolding and increases secretion of Z α1‐antitrypsin” (EMBO Molecular Medicine, 2021).

One test has as its system α1‐antitrypsin. The experiment in a line: Equilibrium unfolding in guanidinium hydrochloride with bis‐ANS. The following applies: 50 µM GSK716, guanidinium hydrochloride; ~ 1.3 M in its absence. Format: biochemical, human. An excerpt: Polymerisation of α1‐antitrypsin involves transition through a transient intermediate state known as M*, that is readily populated by the Z variant (Dafforn et al, 1999; Knaupp et al, 2010). The M* conformational ensemble appears to be a distinct species between the native state conformation and that of the final polymer. One of the hallmarks of M* is its recognition by environment‐sensitive fluorescent reporter dyes. Thermal shift assays that make use of the dye SYPRO Orange report the stability of the protein native state against heat‐induced unfolding. […] Native state stability can also be probed by equilibrium unfolding using chemical denaturants, where a peak in bis‐ANS fluorescence corresponds with a maximally populated unfolding intermediate (James & Bottomley, 1998). […] The association of GSK716 induced a marked quenching and blue‐shift of the α1‐antitrypsin intrinsic tryptophan fluorescence spectrum (Fig 4D, inset). The rate of change in fluorescence during association of 10µM GSK716 was proportional to the propensity of α1‐antitrypsin mutants to form polymers in vivo: inert (M), mild (S), moderate (Baghdad) and severe (Z) α1‐antitrypsin (Fig 4D, top and bottom). […]

For a further test, the target named is Dopamine D1 (Homo sapiens, UniProt P21728). Description: Off‐target panel: Dopamine D1 (DRX). The test is classed as cell-based. As for the experimental part: (§1) GSK716 selectivity and PK properties were profiled in order to investigate the suitability of GSK716 for progression into in vivo studies and the potential for taking it forward as a clinical candidate for testing in humans. Since GSK716 results in loss of inhibitory activity of α1‐antitrypsin, the effect of the compound was assessed on other closely related serpins. […] Furthermore, there were no off‐target effects in a panel of assays considered predictive of known safety liabilities that precluded further development of GSK716 (Table EV1).

For a further test, the target named is T1, Serotonin 5HT3 (Homo sapiens, UniProt P46098).
T1 sequence (P46098 24-478): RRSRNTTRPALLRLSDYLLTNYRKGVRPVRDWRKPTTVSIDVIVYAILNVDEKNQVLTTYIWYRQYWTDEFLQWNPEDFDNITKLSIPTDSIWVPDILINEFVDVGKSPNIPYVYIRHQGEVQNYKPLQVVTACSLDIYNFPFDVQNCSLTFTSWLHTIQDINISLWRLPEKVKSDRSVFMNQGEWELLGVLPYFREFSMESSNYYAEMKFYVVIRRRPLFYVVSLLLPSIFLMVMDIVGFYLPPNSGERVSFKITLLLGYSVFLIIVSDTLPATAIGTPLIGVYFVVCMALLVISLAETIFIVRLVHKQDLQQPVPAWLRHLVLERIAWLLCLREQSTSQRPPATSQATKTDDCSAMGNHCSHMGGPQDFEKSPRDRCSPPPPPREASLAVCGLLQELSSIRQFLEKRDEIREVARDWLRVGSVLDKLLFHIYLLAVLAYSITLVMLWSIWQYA
Description: Off‐target panel: Serotonin 5HT3. The test is classed as cell-based. As for the experimental part: as §1

A further test concerns the target PXR (rat) (Rattus norvegicus, UniProt Q9R1A7). The experiment in a line: Off‐target panel: PXR (rat). The test is classed as cell-based. The method, then:
as §1

Another test concerns the target PDE3A (Homo sapiens, UniProt Q14432). The experiment in a line: Off‐target panel: PDE3A. Conditions: Inhibition, read-out: Mean (PXC50). Format: biochemical. As for the experimental part:
as §1

For another test, the target named is Serotonin 5HT1B (Homo sapiens, UniProt P28222). The experiment in a line: Off‐target panel: Serotonin 5HT1B (DRX). The test is classed as cell-based. As for the experimental part:
as §1

For the next test, the target named is T2, Muscarinic M1 (Homo sapiens, UniProt P11229).
T2 sequence (P11229 1-460): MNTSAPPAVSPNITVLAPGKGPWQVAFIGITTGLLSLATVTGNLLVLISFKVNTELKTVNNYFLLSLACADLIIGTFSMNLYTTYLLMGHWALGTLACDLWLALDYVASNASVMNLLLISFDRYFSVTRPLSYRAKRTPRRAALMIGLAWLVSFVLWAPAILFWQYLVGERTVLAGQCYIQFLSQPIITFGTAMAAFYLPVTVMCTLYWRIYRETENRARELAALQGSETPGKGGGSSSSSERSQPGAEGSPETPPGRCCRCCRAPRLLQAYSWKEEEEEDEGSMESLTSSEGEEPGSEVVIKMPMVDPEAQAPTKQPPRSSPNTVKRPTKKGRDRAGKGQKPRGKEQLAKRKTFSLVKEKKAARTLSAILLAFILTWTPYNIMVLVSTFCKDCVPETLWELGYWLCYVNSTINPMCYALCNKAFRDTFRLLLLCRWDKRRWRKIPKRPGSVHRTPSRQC
The experiment in a line: Off‐target panel: Muscarinic M1 (DRX). Format: cell-based. The method, then:
as §1

Sequence of Serotonin 5HT1B (P28222 whole entry): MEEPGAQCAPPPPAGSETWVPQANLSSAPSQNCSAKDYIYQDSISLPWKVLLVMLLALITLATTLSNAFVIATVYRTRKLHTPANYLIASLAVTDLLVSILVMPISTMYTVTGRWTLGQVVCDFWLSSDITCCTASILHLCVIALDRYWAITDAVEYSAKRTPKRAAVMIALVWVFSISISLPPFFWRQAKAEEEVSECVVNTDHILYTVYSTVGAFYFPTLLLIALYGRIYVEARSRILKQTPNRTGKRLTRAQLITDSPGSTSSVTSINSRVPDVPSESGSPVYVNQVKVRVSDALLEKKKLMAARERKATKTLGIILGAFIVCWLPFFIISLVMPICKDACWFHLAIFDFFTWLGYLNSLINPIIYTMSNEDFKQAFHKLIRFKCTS
Sequence of PXR (rat) (Q9R1A7 whole entry): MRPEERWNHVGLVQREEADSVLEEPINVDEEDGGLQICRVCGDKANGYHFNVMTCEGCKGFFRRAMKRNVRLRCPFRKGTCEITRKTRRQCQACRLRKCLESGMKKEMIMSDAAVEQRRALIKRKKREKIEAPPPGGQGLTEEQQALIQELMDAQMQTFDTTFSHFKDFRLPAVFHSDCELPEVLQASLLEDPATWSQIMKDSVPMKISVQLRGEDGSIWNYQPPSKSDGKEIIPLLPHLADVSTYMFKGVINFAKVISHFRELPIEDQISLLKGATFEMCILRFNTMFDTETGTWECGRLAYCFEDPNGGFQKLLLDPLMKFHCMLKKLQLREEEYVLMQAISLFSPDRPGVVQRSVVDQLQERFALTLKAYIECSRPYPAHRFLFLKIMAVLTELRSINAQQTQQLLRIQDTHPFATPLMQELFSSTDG
Sequence of PDE3A (Q14432 whole entry, species assumed): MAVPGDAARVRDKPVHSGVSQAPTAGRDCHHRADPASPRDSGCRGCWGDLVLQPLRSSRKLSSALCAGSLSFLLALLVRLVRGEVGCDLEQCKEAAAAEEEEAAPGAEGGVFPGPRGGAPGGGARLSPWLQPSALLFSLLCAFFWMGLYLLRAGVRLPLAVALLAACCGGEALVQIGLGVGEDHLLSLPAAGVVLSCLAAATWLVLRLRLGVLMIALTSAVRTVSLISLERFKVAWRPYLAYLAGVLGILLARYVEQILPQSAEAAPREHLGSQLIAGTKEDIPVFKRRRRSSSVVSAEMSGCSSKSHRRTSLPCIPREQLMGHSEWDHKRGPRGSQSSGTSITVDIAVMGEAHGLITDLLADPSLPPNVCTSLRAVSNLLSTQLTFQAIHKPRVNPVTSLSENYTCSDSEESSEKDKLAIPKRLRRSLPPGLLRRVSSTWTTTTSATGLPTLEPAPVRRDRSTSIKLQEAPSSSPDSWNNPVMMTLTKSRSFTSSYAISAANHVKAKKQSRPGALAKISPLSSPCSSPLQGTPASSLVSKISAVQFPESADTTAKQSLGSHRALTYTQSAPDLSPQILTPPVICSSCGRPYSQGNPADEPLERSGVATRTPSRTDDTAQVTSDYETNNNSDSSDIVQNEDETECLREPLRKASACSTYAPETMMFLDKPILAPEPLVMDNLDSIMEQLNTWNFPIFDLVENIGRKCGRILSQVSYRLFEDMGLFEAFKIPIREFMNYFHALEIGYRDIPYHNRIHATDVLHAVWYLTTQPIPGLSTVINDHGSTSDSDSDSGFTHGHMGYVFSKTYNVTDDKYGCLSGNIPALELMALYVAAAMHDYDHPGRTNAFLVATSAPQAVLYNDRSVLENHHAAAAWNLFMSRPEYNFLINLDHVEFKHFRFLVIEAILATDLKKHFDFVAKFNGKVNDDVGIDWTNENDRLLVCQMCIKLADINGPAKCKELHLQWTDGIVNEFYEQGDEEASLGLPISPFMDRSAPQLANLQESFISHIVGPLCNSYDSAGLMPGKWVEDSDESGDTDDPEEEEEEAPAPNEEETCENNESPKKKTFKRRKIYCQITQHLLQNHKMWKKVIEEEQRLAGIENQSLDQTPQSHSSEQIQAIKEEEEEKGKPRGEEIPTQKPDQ
Sequence of Dopamine D1 (P21728 whole entry): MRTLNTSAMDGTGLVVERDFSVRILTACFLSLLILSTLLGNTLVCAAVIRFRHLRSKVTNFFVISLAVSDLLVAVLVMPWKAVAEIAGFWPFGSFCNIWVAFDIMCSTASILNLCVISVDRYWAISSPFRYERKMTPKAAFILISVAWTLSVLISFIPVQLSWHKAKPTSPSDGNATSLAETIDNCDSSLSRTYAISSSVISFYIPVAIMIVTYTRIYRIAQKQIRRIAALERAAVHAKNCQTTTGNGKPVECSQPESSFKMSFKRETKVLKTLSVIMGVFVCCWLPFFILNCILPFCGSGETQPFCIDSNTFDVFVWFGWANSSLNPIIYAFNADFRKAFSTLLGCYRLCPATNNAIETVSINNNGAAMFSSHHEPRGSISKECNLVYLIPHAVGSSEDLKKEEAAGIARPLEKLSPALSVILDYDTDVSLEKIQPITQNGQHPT

In general, EC50 refers to the concentration that produces a half-maximal response. Lower therefore signals a more potent agent. As to `CCC[C@@H](NC(=O)c1cccc2c1CC(=O)N2)[C@@H](O)c1cccc(F)c1C` [GSK716], the “denaturant concentration at peak bis‐ANS fluorescence (maximally populated unfolding intermediate)” value in the test with α1‐antitrypsin was ~ 1.9 M. Further, the IC50 against Dopamine D1 was over 100 µM; on Serotonin 5HT3 it was 31.6 µM; at PDE3A it was over 100 µM; against Serotonin 5HT1B it was over 100 µM; against Muscarinic M1, over 50.1 µM. Moreover, the EC50 was over 50.1 µM at Serotonin 5HT3, 12.6 µM at PXR (rat), over 100 µM on Serotonin 5HT1B and over 50.1 µM on Muscarinic M1.
